Measurements taken from ChEMBL document CHEMBL5143734, “Seco-Lupane Triterpene Derivatives Induce Ferroptosis through GPX4/ACSL4 Axis and Target Cyclin D1 to Block the Cell Cycle” (J Med Chem, 2022).

Key:
Format in all cases: functional, cell-based
A549 = experiment: Cytotoxicity against human A549 cells assessed as reduction in cell viability by CCK-8 assay
HepG2 = experiment: Cytotoxicity against human HepG2 cells assessed as reduction in cell viability by CCK-8 assay
MCF7 = experiment: Cytotoxicity against human MCF7 cells assessed as reduction in cell viability by CCK-8 assay
PANC-1 = experiment: Cytotoxicity against human PANC-1 cells assessed as reduction in cell viability by CCK-8 assay
PC-3M = experiment: Cytotoxicity against human PC-3M cells assessed as reduction in cell viability by CCK-8 assay

SMILES | IC50 (A549) [µM] | IC50 (HepG2) [µM] | IC50 (MCF7) [µM] | IC50 (PANC-1) [µM] | IC50 (PC-3M) [µM]
C=C(C)[C@@H]1CC[C@]2(C(=O)OCCCCCCBr)CC[C@]3(C)[C@H](C[C@H]4OC(=O)C[C@@H](O)[C@]5(C)[C@@H]4[C@@]3(C)CC[C@H]5C(=C)C)[C@@H]12 | 27.6 | 12.3 | 75.7 | 21.8 | 16.1
C=C(C)[C@@H]1CC[C@]2(C(=O)OCCCCCCn3cncn3)CC[C@]3(C)[C@H](C[C@@H](O)[C@@H]4[C@@]5(C)C(CC(=O)OC)OC(C)(C)C5CC[C@]43C)[C@@H]12 (stereo not given in full) | 52.7 | 37.8 | 79.9 | 59.8 | 27.4
C=C(C)[C@@H]1CC[C@]2(C(=O)OCCCCCCCCCCn3cnc(C)c3)CC[C@]3(C)[C@H](C[C@@H](O)[C@@H]4[C@@]5(C)C(CC(=O)OC)OC(C)(C)C5CC[C@]43C)[C@@H]12 (stereo not given in full) | 22.4 | 6.76 | 33.7 | 12.3 | 12.7
C=C(C)[C@@H]1CC[C@]2(C(=O)O)CC[C@]3(C)[C@H](C[C@H]4OC(=O)C[C@@H](O)[C@]5(C)[C@@H]4[C@@]3(C)CC[C@H]5C(=C)C)[C@@H]12 | 145 | > 200 | > 200 | > 200 | 134
C=C(C)[C@@H]1CC[C@]2(C(=O)OCCCn3cc(CCN)c4ccccc43)CC[C@]3(C)[C@H](C[C@@H](O)[C@@H]4[C@@]5(C)C(CC(=O)OC)OC(C)(C)C5CC[C@]43C)[C@@H]12 (stereo not given in full) | 7.67 | 2.51 | 8.05 | 7.04 | 7.6
C=C(C)[C@@H]1CC[C@]2(C(=O)OCCCCCn3cncn3)CC[C@]3(C)[C@H](C[C@@H](O)[C@@H]4[C@@]5(C)C(CC(=O)OC)OC(C)(C)C5CC[C@]43C)[C@@H]12 (stereo not given in full) | 57.9 | 37.2 | 81.6 | 90 | 32.3
C=C(C)[C@@H]1CC[C@]2(C(=O)OCCCCBr)CC[C@]3(C)[C@H](C[C@@H](O)[C@@H]4[C@@]5(C)C(CC(=O)OC)OC(C)(C)C5CC[C@]43C)[C@@H]12 (stereo not given in full) | 46 | 27.6 | 82 | 72.8 | 53.3
C=C(C)[C@@H]1CC[C@]2(C(=O)OCCCBr)CC[C@]3(C)[C@H](C[C@H]4OC(=O)C[C@@H](O)[C@]5(C)[C@@H]4[C@@]3(C)CC[C@H]5C(=C)C)[C@@H]12 | 136 | > 200 | > 200 | > 200 | 109
C=C(C)[C@@H]1CC[C@]2(C(=O)OCCCCCCn3ccnc3)CC[C@]3(C)[C@H](C[C@@H](O)[C@@H]4[C@@]5(C)C(CC(=O)OC)OC(C)(C)C5CC[C@]43C)[C@@H]12 (stereo not given in full) | 26.1 | 15.8 | 45.5 | 25.9 | 19.7
C=C(C)[C@@H]1CC[C@]2(C(=O)OCCCCCCCCCCn3cnc(C)c3)CC[C@]3(C)[C@H](C[C@H]4OC(=O)C[C@@H](O)[C@]5(C)[C@@H]4[C@@]3(C)CC[C@H]5C(=C)C)[C@@H]12 | 16.7 | 5.79 | 35.8 | 9.92 | 13.9
C=C(C)[C@@H]1CC[C@]2(C(=O)OCCCn3cncn3)CC[C@]3(C)[C@H](C[C@H]4OC(=O)C[C@@H](O)[C@]5(C)[C@@H]4[C@@]3(C)CC[C@H]5C(=C)C)[C@@H]12 | 45.2 | > 200 | 51.2 | 140 | 34
C=C(C)[C@@H]1CC[C@]2(C(=O)OCCCCCCCCCCn3ccnc3CC)CC[C@]3(C)[C@H](C[C@@H](O)[C@@H]4[C@@]5(C)C(CC(=O)OC)OC(C)(C)C5CC[C@]43C)[C@@H]12 (stereo not given in full) | 18.5 | 6.97 | 18.5 | 10.6 | 11.5
C=C(C)[C@@H]1CC[C@]2(C(=O)OCCCCn3ccnc3)CC[C@]3(C)[C@H](C[C@@H](O)[C@@H]4[C@@]5(C)C(CC(=O)OC)OC(C)(C)C5CC[C@]43C)[C@@H]12 (stereo not given in full) | 36.7 | 26 | 75.2 | 53.4 | 44.3
C=C(C)[C@@H]1CC[C@]2(C(=O)OCCCCn3cncn3)CC[C@]3(C)[C@H](C[C@@H](O)[C@@H]4[C@@]5(C)C(CC(=O)OC)OC(C)(C)C5CC[C@]43C)[C@@H]12 (stereo not given in full) | 42.4 | 26.1 | 75.2 | 58.6 | 45.3
C=C(C)[C@@H]1CC[C@]2(C(=O)OCCCCCn3ccnc3C)CC[C@]3(C)[C@H](C[C@H]4OC(=O)C[C@@H](O)[C@]5(C)[C@@H]4[C@@]3(C)CC[C@H]5C(=C)C)[C@@H]12 | 15.9 | 8.89 | 46 | 14.2 | 12.4
